Laboratory results as given in patent publication US20150072968A1, “Treating Infections with Ceftolozane/Tazobactam in Subjects Having Impaired Renal Function” (Calixa Therapeutics, Inc., priority 2013, published 2015).
Like-named read-outs stand apart in the source and are kept apart here.

What was measured:
[1] = Phase I PK studies in subjects with varying degrees of renal function (Example 11); format: in vivo, human
Excerpt: Male and female subjects, aged 18 to 79 years, with varying degrees of renal function were enrolled in two, prospective, open-label, phase I studies of intravenous ceftolozane/tazobactam. A total of 36 subjects were enrolled into cohorts based on degree of renal function: normal (n=11), mild impairment (n=6), moderate impairment (n=7), severe impairment (n=6), and ESRD on HD (n=6). To ensure subjects with ESRD were receiving effective HD, a target adequacy of HD calculated from the pre- and post-blood urea nitrogen ratios (Kt/V) of at least 1.2 for a minimum of 3 months prior to enrollment was required. Renal impairment groups were classified according to the 2010 U.S.

[2] = Population pharmacokinetic analysis of 10 clinical studies (Example 7); format: in vivo, human
Excerpt: Base model development. […] Intrinsic covariates analyzed included body weight, age, gender, ethnicity, and baseline calculated CrCL). The CrCL was estimated using the Cockcroft-Gault formula: […] […] Final population PK model: evaluation and performance. […] Smaller shrinkage ≦0.2 indicates good individual estimates.

[3] = Phase 1 single dose PK of 750 mg ceftolozane/tazobactam in severe renal impairment and ESRD on hemodialysis (Example 8); format: in vivo, human; details: for AUC(0-t) / Cmax / half-life / Tmax / AUC(0-inf) / clearance / Vd: both sexes, human, plasma; for Cmax: read-out: Cmax, Mean (CV %); for half-life: read-out: t1/2, Mean (CV %) (converted); for Tmax: read-out: tmax, Median (minimum, maximum); for AUC(0-inf): read-out: AUC∞, Mean (CV %); for clearance: read-out: CL, Mean (CV %) (converted); for Vd: read-out: Vss, Mean (CV %)
Method: This was a Phase 1, multicenter, prospective, open-label study of 750 mg ceftolozane/tazobactam (as CXA-201) administered IV in male and female adult subjects with severe renal impairment (estimated CLCR<30 mL/min) and subjects with end-stage renal disease (ESRD) on hemodialysis (HD). The primary objective of the study was to determine the PK profile of ceftolozane/tazobactam in subjects with severe renal impairment and subjects with ESRD on HD and to determine the effect of HD on the clearance of ceftolozane/tazobactam.
Subjects with severe renal impairment received a single IV 1-hour infusion of 750 mg ceftolozane/tazobactam on Day 1. […] Subjects in this cohort received an IV dose of 750 mg ceftolozane/tazobactam as a 1 hour infusion immediately after their first HD session on Day 1 (postdialysis, approximately 72 hours prior to the next HD session) and a second dose of ceftolozane/tazobactam approximately 2 hours before their second HD session on Day 4 of the study. Infusion of ceftolozane/tazobactam was completed approximately 1 hour before the start of HD.
Subjects in both cohorts had urine (if not anuric) and plasma samples collected for determination of levels of ceftolozane, tazobactam and the M1 metabolite of tazobactam; subjects in the ESRD on HD cohort also had dialysate fluid samples collected for PK assessment. Plasma, urine, and dialysate levels of ceftolozane, tazobactam, and its metabolite M1 collected over a prespecified interval were determined by LC/MS/MS assay.
All subjects underwent hemodialysis for 3 to 4 hours using a high-flux membrane (either 1.4, 1.8, or 1.9 m^2) on Days 1, 4, and 6 as scheduled. Average blood flow rate was 264 to 600 mL/min and average dialysis flow rate was either 600 or 800 mL/min for all subjects with ESRD.

[4] = cited from earlier work
[5] = Pharmacokinetics of ceftolozane/tazobactam in healthy volunteers; format: in vivo, human
[6] = clinical; details: human, in vivo
Excerpt: CXA-201 plasma concentrations from 6 subjects with ESRD following a single dose without HD and a second dose with HD were used to develop a pPK model (Phoenix NLME, Pharsight).

[7] = cited from earlier work; remark: listed apart in the source
[8] = tested on: P. aeruginosa; details: neutropenic murine-thigh infection model; cited from earlier work
[9] = moderate renal impairment, single 1,000 mg/500 mg dose
[10] = severe renal impairment, single 500 mg/250 mg dose
[11] = intravenous, 750 mg, ESRD on HD, second infusion Day 4, start of infusion to end of dialysis
[12] = iv, 750 mg, ESRD on HD, Day 1 IV infusion of 750 mg (non-hemodialysis phase)
[13] = iv, 750 mg, ESRD on HD, second IV infusion of 750 mg on Day 4 (during HD)
[14] = iv, 750 mg, severe renal impairment, single IV 1-hour infusion of 750 mg ceftolozane/tazobactam

In the case of `Cn1c(N)c(NC(=O)NCCN)c[n+]1CC1=C(C(=O)[O-])N2C(=O)[C@@H](NC(=O)/C(=N\OC(C)(C)C(=O)O)c3nsc(N)n3)[C@H]2SC1` [Ceftolozane, (6R,7R)-3-[(5-amino-4-{[(2-aminoethyl)carbamoyl]amino}-1-methyl-1H-pyrazol-2-ium-2-yl)methyl]-7-({(2Z)-2-(5-amino-1,2,4-thiadiazol-3-yl)-2-[(1-carboxy-1-methylethoxy)imino]acetyl}amino)-8-oxo-5-thia-1-azabicyclo[4.2.0]oct-2-ene-2-carboxylate], the extraction ratio ([1]; 1 h after the start of HD) is reported as 42%, the extraction ratio ([1]; 2 h after the start of HD) is reported as 48% and the “median Cmax in plasma higher compared with normal renal function, dose normalized” value ([1]; ESRD during non-HD) is reported as 1.2 fold. The “average extraction ratio during HD” value ([1]; ESRD on HD) was 46%, the “median RDHD (percent reduction in plasma concentration during HD)” value ([1]; ESRD on HD) was 92% and the “reduction in overall exposure based on the AUC0-∞ on and off HD” value ([1]; ESRD on HD) was “approximately 66%”. For the same molecule, the “plasma concentration rebound peak following HD, of the original Cmax” value ([1]; ESRD, period following HD) was “approximately 17%”, the extraction ratio ([1]; at end of HD) was 47% and the clearance ([1]; both sexes, human, dialysate and plasma, intravenous, ESRD on HD, read-out: median dialysis clearance (CLD) (converted)) was 95.8 mL/min. The half-life ([1]; both sexes, human, plasma, intravenous, ESRD on HD, read-out: t1/2 during the HD period (converted)) was 1.13 h, the “increase of median AUC0-∞ compared with normal renal function” value [1, 9] was 2.5 fold and the “increase of median Cmax compared with normal renal function” value [1, 9] was 1.2 fold. The “increase of median AUC0-∞ compared with dose-normalized exposure in normal renal function” value [1, 10] was 4.4 fold, the “increase of median Cmax compared with dose-normalized exposure in normal renal function” value [1, 10] was 1.3 fold and the Vc ([2]; cIAI) was 18.2 L. The Vc ([2]; cUTI, at 74 kg body weight) was 13.8 L, the “between-subject variability (BSV) of CL” value ([2]; final population PK model) was 33.0% and the clearance ([2]; human, plasma, intravenous, patients with cIAI, at CrCL=109 mL/min, read-out: CL (converted)) was 104 mL/min. For the same molecule, the “CL higher than that in healthy subjects” value ([2]; patients with cUTI and cIAI) was “about 20%”, the CL ([2]; patients with cUTI, at CrCL=109 mL/min) was 6.18 L/h and the AUC(0-t) ([3]; intravenous, 750 mg, ESRD on HD, second infusion Day 4, approximately 6 hours from start of infusion to end of dialysis, read-out: AUClast, Mean (CV %)) was 87.5 µg·h/mL. The Cmax [3, 11] was 40900 ng/mL, the half-life [3, 11] was 1.25 h and the Tmax [3, 11] was 1 h. The AUC(0-t) ([3]; intravenous, 750 mg, subjects with ESRD, read-out: Exposure (AUC48h) After HD (Day 1), Median (Range)) was 903 µg·h/mL, the AUC(0-t) ([3]; intravenous, 750 mg, subjects with ESRD, read-out: Exposure (AUC48h) During HD (Day 3), Median (Range)) was 298 µg·h/mL and the AUC(0-inf) [3, 12] was 1680 µg·h/mL. It also gave a clearance [3, 12] of 6.67 mL/min, a Cmax [3, 12] of 44500 ng/mL and a Vd [3, 12] of 19.2 L. It also gave a half-life [3, 12] of 39.8 h, an AUC(0-t) ([3]; iv, 750 mg, ESRD on HD, Day 1 IV infusion of 750 mg (non-hemodialysis phase), through 48 hours, read-out: AUClast, Mean (CV %)) of 910 µg·h/mL and a Cmax [3, 13] of 40900 ng/mL. For the same molecule, the half-life [3, 13] was 43.5 h, the AUC(0-t) ([3]; iv, 750 mg, ESRD on HD, second IV infusion of 750 mg on Day 4 (during HD), through 44 hours, read-out: AUClast, Mean (CV %)) was 304 µg·h/mL and the AUC(0-t) ([3]; iv, 750 mg, severe renal impairment, single IV 1-hour infusion of 750 mg ceftolozane/tazobactam, through 48 hours, read-out: AUClast, Mean (CV %)) was 511 µg·h/mL. The Cmax [3, 14] was 49900 ng/mL, the AUC(0-inf) [3, 14] was 537 µg·h/mL and the clearance [3, 14] was 16.7 mL/min. It also gave a Vd [3, 14] of 13.8 L, a half-life [3, 14] of 11.1 h and a Tmax ([3]; ESRD on HD, second IV infusion of 750 mg on Day 4 (during HD)) of 1 h. The “AUC48h Ratio (Day 3:1), Median (Range)” value ([3]; subjects with ESRD, during HD vs after HD) was 0.34 (0.26 − 0.48), the “Percent Removed, Median (Range)” value ([3]; subjects with ESRD, hemodialysis) was 66 (52 − 74) Percent and the protein binding [4] was “approximately 20%”. The clearance ([5]; human, plasma, intravenous, after a single dose of CXA-201, read-out: plasma CL) was 68.3 to 112 mL/min, the CL renal ([5]; human, urine and plasma, intravenous, after a single dose of CXA-201, read-out: renal clearance) was 56.8 to 112 mL/min and the “excreted in the urine as unchanged parent drug” value ([5]; single 1.5 g intravenous dose of CXA-201, healthy male adults) was “greater than 95%”. The Vd [6] was 6 L, the clearance [6] was 5.67 mL/min and the “increase of CL by HD” value [6] was 60 fold. The “increase of Vc by HD” value [6] was 4.7 fold, the “terminal elimination half-life (t½β)” value ([7]; healthy volunteers) was “approximately 2.5 hours” and the “Terminal elimination half-lives (t1/2)” value ([7]; patients with normal renal function) was “approximately 2.5 h”. For the same molecule, the “free-drug (f) % T>MIC associated with a 1-log10 CFU reduction from baseline” value [8] was 32.2 and the “free-drug (f) % T>MIC associated with net bacterial stasis” value [8] was 24.8.
